Laboratory results: patent US20100120858A1, “Piperidine Derivatives” (Pfizer Inc., priority 2006, published 2010)

Assays:
[1] = target: human norepinephrine transporter (Homo sapiens, UniProt P23975); assay: Human norepinephrine (hNET) receptor binding, [125I]-RTI-55; settings: membranes of HEK-293 cells transfected with human norepinephrine transporter cDNA; 50 pM [125I]-RTI-55; IC50 converted by Cheng-Prusoff
Method: Cell pastes of human embryonic kidney 293 (HEK-293) cells transfected with a human norepinephrine transporter cDNA were prepared. The cell pastes were resuspended in 400 to 700 mL of Krebs-N-2-hydroxyethylpiperazine-N′-2-ethanesulfonic acid (HEPES) assay buffer (25 mM HEPES, 122 mM NaCl, 3 mM KCl, 1.2 mM MgSO4, 1.3 mM CaCl2, and 11 mM glucose, pH 7.4) with a Polytron homogenizer at setting 7 for 30 seconds. Aliquots of membranes (5 mg/mL protein) were stored in liquid nitrogen until used.
The binding assay was set up in Beckman deep-well polypropylene plates with a total volume of 250 μL containing: test compound (concentration of 10^−5M to 10^−12M), cell membranes, and 50 pM [^125I]-RTI-55 ([^125I]-3 beta-(4-iodophenyl)tropan-2 beta-carboxylic acid methyl ester) (Perkin Elmer, NEX-272; specific activity 2200 Ci/mmol). The reaction was incubated by gentle agitation for 90 minutes at room temperature and was terminated by filtration through Whatman GF/C filter plates using a Brandel 96-well plate harvester. Scintillation fluid (100 μL) was added to each well, and bound [^125I]-RTI-55 was determined using a Wallac Trilux Beta Plate Counter. Test compounds were run in duplicate, and specific binding was defined as the difference between binding in the presence and absence of 10 μM desipramine.
Excel and GraphPad Prism software were used for data calculation and analysis. IC50 values were converted to Ki values using the Cheng-Prusoff equation. The Ki values (nM) for the hNET are reported below in Table 13.

[2] = target: human serotonin transporter (Homo sapiens, UniProt P31645); assay: Human serotonin (hSERT) receptor binding, [125I]-RTI-55; settings: membranes of HEK-293 cells transfected with human serotonin transporter cDNA, IC50 converted by Cheng-Prusoff
Chain of human serotonin transporter (P31645 whole entry): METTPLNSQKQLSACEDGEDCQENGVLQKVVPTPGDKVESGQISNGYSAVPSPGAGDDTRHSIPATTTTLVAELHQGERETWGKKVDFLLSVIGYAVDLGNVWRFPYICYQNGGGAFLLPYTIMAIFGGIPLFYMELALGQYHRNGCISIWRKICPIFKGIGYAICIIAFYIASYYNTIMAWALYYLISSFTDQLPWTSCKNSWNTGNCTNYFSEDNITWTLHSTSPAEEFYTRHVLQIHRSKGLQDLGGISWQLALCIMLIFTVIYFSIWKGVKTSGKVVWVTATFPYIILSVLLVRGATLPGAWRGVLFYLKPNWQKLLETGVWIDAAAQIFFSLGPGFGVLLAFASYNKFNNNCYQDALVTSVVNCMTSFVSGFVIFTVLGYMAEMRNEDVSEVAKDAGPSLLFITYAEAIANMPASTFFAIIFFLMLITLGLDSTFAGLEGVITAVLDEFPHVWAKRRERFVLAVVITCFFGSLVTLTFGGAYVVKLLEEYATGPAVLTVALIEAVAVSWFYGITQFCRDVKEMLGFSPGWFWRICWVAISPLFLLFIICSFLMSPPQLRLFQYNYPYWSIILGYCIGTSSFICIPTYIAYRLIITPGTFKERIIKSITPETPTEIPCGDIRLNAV
Method: Cell pastes of HEK-293 cells transfected with a human serotonin transporter cDNA were prepared. The cell pastes were resuspended in 400 to 700 ml of Krebs-HEPES assay buffer (25 mM HEPES, 122 mM NaCl, 3 mM KCl, 1.2 mM MgSO4, 1.3 mM CaCl2, and 11 mM glucose, pH 7.4) with a Polytron homogenizer at Setting 7 for 30 seconds. Aliquots of membranes (˜2.5 mg/mL protein) were stored in liquid nitrogen until used.
Assays were set up in FlashPlates pre-coated with 0.1% polyethyleneimine (PEI) in a total volume of 250 μL containing: test compound (concentration 10^−5M to 10^−12M), cell membranes, and […] [^125I]-RTI-55 (Perkin Elmer, NEX-272; specific activity 2200 Ci/mmol). The reaction was incubated and gently agitated for 90 minutes at room temperature, and terminated by removal of assay volume. Plates were covered, and bound [^125I]-RTI-55 was determined using a Wallac Trilux Beta Plate Counter. Test compounds were run in duplicate, and specific binding was defined as the difference between binding in the presence and absence of 10 μM citalopram.
Excel and GraphPad Prism software were used for data calculation and analysis. IC50 values were converted to Ki values using the Cheng-Prusoff equation.

Chain of human norepinephrine transporter (P23975 whole entry): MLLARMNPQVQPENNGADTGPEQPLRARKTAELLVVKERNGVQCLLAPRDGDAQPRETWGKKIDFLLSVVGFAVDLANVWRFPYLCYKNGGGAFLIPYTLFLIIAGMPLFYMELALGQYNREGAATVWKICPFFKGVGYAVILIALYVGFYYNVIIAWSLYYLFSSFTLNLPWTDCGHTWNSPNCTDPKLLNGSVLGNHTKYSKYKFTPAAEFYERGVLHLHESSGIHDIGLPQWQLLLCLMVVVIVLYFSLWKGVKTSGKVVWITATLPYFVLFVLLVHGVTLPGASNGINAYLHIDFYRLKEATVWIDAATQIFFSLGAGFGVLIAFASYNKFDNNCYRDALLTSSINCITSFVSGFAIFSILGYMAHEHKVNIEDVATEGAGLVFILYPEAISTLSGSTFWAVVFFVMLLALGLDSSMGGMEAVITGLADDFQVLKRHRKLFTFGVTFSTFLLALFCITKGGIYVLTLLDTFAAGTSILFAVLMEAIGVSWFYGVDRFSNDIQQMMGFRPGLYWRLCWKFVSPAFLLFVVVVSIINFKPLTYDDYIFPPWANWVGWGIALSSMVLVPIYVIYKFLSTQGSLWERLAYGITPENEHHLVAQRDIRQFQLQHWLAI

| Ki [1] [nM] | Ki [2] [nM] | SMILES |
| --- | --- | --- |
| 7 | 430 | CCOc1ccccc1OC(c1ccccc1)[C@H]1CCCNC1 (mixture of isomers) [Example 106, (S)-3-[(2-ethoxy-phenoxy)-(R,S)-phenyl-methyl]-piperidine fumaric acid] |
| 4 | 150 | Fc1ccc(Oc2ncccc2OC(c2ccccc2)C2CCCNC2)cc1 (single isomer, unassigned; stereoisomer a) [Example 88, 2-(4-fluoro-phenoxy)-3-[((R or S)-phenyl)-((S)-piperidin-3-yl)-methoxy]-pyridine fumaric acid, stereoisomer A] |
| 2 | 71 | CCOc1ncccc1OC(c1ccccc1)C1CCCNC1 (single isomer, unassigned; stereoisomer a) [Example 90, 2-ethoxy-3-[((R or S)-phenyl)-((S)-piperidin-3-yl)-methoxy]-pyridine fumaric acid, stereoisomer A] |
| 43 | 590 | Fc1ccc(Oc2ncccc2OC(c2ccccc2)C2CCCNC2)cc1 (single isomer, unassigned; stereoisomer b) [Example 89, 2-(4-fluoro-phenoxy)-3-[((R or S)-phenyl)-((S)-piperidin-3-yl)-methoxy]-pyridine fumaric acid, stereoisomer B] |
| 99 | 430 | CCOc1ncccc1OC(c1ccccc1)C1CCCNC1 (single isomer, unassigned; stereoisomer b) [Example 91, 2-ethoxy-3-[((R or S)-phenyl)-((S)-piperidin-3-yl)-methoxy]-pyridine fumaric acid, stereoisomer B] |
| 28 | 580 | Cc1ccc(OC[C@H]2CCCNC2)c(Oc2ccc(F)cc2C)n1 [Example 1, (S)-2-(4-fluoro-2-methyl-phenoxy)-6-methyl-3-(piperidin-3-ylmethoxy)-pyridine fumaric acid] |
| 17 | ≥ 10000 | Cc1ccc(OC[C@H]2CCCNC2)c(Oc2c(C)cccc2C)n1 [Example 2, (S)-2-(2,6-dimethyl-phenoxy)-6-methyl-3-(piperidin-3-ylmethoxy)-pyridine fumaric acid] |
| 2.2 | 1200 | COc1ccccc1Oc1nc(C)ccc1OC[C@H]1CCCNC1 [Example 3, (S)-2-(2-methoxy-phenoxy)-6-methyl-3-(piperidin-3-ylmethoxy)-pyridine fumaric acid] |
| 8.4 | 2800 | Cc1ccc(OC[C@H]2CCCNC2)c(Oc2ccccc2C)n1 [Example 5, (S)-2-(2-methyl-phenoxy)-6-methyl-3-(piperidin-3-ylmethoxy)-pyridine fumaric acid] |
| 2.7 | 350 | Cc1ccc(OC[C@H]2CCCNC2)c(Oc2ccccc2Cl)n1 [Example 7, (S)-2-(2-chloro-phenoxy)-6-methyl-3-(piperidin-3-ylmethoxy)-pyridine fumaric acid] |
| 3200 | ≥ 10000 | COc1cccc(Oc2nc(C)ccc2OC[C@H]2CCCNC2)c1OC [Example 9, (S)-2-(2,3-dimethoxy-phenoxy)-6-methyl-3-(piperidin-3-ylmethoxy)-pyridine fumaric acid] |
| 10.1 | 2600 | Cc1ccc(OC[C@H]2CCCNC2)c(Oc2ccccc2OC(C)C)n1 [Example 10, (S)-2-[2-(1-methyl-ethoxy)-phenoxy]-6-methyl-3-(piperidin-3-ylmethoxy)-pyridine fumaric acid] |
| 8.9 | 140 | Cc1ccc(OC[C@H]2CCCNC2)c(Oc2ccc(Cl)cc2)n1 [Example 13, (S)-2-(4-chloro-phenoxy)-6-methyl-3-(piperidin-3-ylmethoxy)-pyridine fumaric acid] |
| 9.8 | 287 | Cc1ccc(OC[C@H]2CCCNC2)c(Oc2cccc(Cl)c2)n1 [Example 15, (S)-2-(3-chloro-phenoxy)-6-methyl-3-(piperidin-3-ylmethoxy)-pyridine fumaric acid] |
| 2600 | 1700 | Cc1ccc(OC[C@H]2CCCNC2)c(Oc2cc(C)c(Cl)cc2C(C)C)n1 [Example 16, (S)-2-[4-chloro-5-methyl-2-(1-methyl-ethyl)-phenoxy]-6-methyl-3-(piperidin-3-ylmethoxy)-pyridine fumaric acid] |
| 12 | 63 | Cc1ccc(OC[C@H]2CCCNC2)c(Oc2ccc(Cl)c(Cl)c2)n1 [Example 17, (S)-2-(3,4-dichloro-phenoxy)-6-methyl-3-(piperidin-3-ylmethoxy)-pyridine fumaric acid] |
| 54 | 620 | Cc1ccc(OC[C@H]2CCCNC2)c(Oc2ccc3c(c2)CCC3)n1 [Example 18, (S)-2-(2,3-dihydro-1H-inden-5-yloxy)-6-methyl-3-(piperidin-3-ylmethoxy)pyridine fumaric acid] |
| 86 | 1900 | Cc1ccc(OC[C@H]2CCCNC2)c(Oc2cccc3c2CCCC3)n1 [Example 19, (S)-6-methyl-3-(piperidin-3-ylmethoxy)-2-(5,6,7,8-tetrahydronaphthalen-1-yloxy)-pyridine fumaric acid] |
| 4800 | 2400 | Cc1ccc(OC[C@H]2CCCNC2)c(Oc2ccc(C(C)C)cc2)n1 [Example 20, (S)-2-[4-(1-methyl-ethyl)-phenoxy]-6-methyl-3-(piperidin-3-ylmethoxy)-pyridine fumaric acid] |
| 4.9 | 72 | COc1cccc(F)c1Oc1nc(C)ccc1OC[C@H]1CCCNC1 [Example 21, (S)-2-(2-fluoro-6-methoxy-phenoxy)-6-methyl-3-(piperidin-3-ylmethoxy)-pyridine fumaric acid] |
| 4.7 | 79 | Cc1ccc(OC[C@H]2CCCNC2)c(Oc2ccc(Cl)cc2Cl)n1 [Example 22, (S)-2-(2,4-dichloro-phenoxy)-6-methyl-3-(piperidin-3-ylmethoxy)-pyridine fumaric acid] |
| 2.7 | 160 | Cc1ccc(OC[C@H]2CCCNC2)c(Oc2ccc(F)cc2Cl)n1 [Example 24, (S)-2-(2-chloro-4-fluoro-phenoxy)-6-methyl-3-(piperidin-3-ylmethoxy)-pyridine fumaric acid] |
| 18 | 860 | COc1ccc(Oc2nc(C)ccc2OC[C@H]2CCCNC2)c(Cl)c1 [Example 26, (S)-2-(2-chloro-4-methoxy-phenoxy)-6-methyl-3-(piperidin-3-ylmethoxy)-pyridine fumaric acid] |
| 310 | 560 | Cc1ccc(OC[C@H]2CCCNC2)c(Oc2cccc(C(F)(F)F)c2)n1 [Example 27, (S)-6-methyl-2-(3-trifluoromethy-phenoxy)-3-(piperidin-3-ylmethoxy)-pyridine fumaric acid] |
| 6.1 | 300 | COc1cc(F)ccc1Oc1nc(C)ccc1OC[C@H]1CCCNC1 [Example 28, (S)-2-(4-fluoro-2-methoxy-phenoxy)-6-methyl-3-(piperidin-3-ylmethoxy)-pyridine fumaric acid] |
| 15 | 230 | COc1ccc(Oc2nc(C)ccc2OC[C@H]2CCCNC2)c(F)c1 [Example 30, (S)-2-(2-fluoro-4-methoxy-phenoxy)-6-methyl-3-(piperidin-3-ylmethoxy)-pyridine fumaric acid] |
| 8.4 | 101 | Cc1ccc(OC[C@H]2CCCNC2)c(Oc2ccc(Cl)c(F)c2)n1 [Example 31, (S)-2-(4-chloro-3-fluoro-phenoxy)-6-methyl-3-(piperidin-3-ylmethoxy)-pyridine fumaric acid] |

| SMILES | Ki [1] [nM] | Ki [2] [nM] |
| --- | --- | --- |
| CC(C)COc1ncccc1OC(c1ccccc1)[C@H]1CCCNC1 (single isomer, unassigned; stereoisomer a) [Example 92, 2-isobutoxy-3-[((R or S)-phenyl)-((S)-piperidin-3-yl)-methoxy]-pyridine fumaric acid, stereoisomer A] | 29 | 140 |
| CC(C)COc1cccc(F)c1OC[C@H]1CCCNC1 [Example 104, (S)-3-(2-fluoro-6-isobutoxy-phenoxymethyl)-piperidine fumaric acid] | 26 | – |
